Measured values as given in article PMC7871391, “The novel TRPA1 antagonist BI01305834 inhibits ovalbumin-induced bronchoconstriction in guinea pigs” (Respiratory Research, 2021).

Key:
guinea-pig lung slices = test: TRPA1 agonism in lung slices (airway narrowing, histamine release); details: data not shown
Experimental: Lung slices were used for OA and histamine induced airway narrowing studies. In order to do this, lung slices were placed in 1 ml medium and fixed with a plastic ring. After 30 min pre-treatment with the TRPA1 antagonist BI01305834 (0.01, 0.1, 1 or 10 µM) or the vehicle (10% cyclodextrin) OA (10^–5-10^2 µg.ml^−1) or histamine (10^–8-10^–2 M) dose–response curves were established. Using a microscope (Eclipse, TS100; Nikon) time-lapse images (1 frame per 2 s) of the lung slices were captured. The airway luminal area was quantified using image acquisition software (NIS-elements; Nikon) and expressed as percentage of basal area, as described previously.
Lung slices were used for OA-induced histamine determinations, with separate slices for each condition individually. BI01305834 and vehicle pre-treated lung slices were challenged with OA (10 µg.ml^−1) for 5 min. […] Histamine levels of original supernatant and homogenized lung slice supernatant were assessed by liquid chromatography in combination with isotope dilution tandem mass spectrometry (LC–MS/MS). […] Inter-assay imprecision (n = 20 days) was < 2.9% at three different levels (60, 986, 3873 nM, respectively) and limit of quantification was 3.0 nM. Histamine release was calculated as percentage of total histamine present in both supernatant and slice. […]

TRPA1 = test system: TRPA1; design: method as in PMID 17686976, PMID 18954467; details: TRPA1-mediated calcium flux ref 46, 47; cited from earlier work

C=CCN=C=S [AITC, allyl isothiocyanate]
induction of airway narrowing (guinea-pig lung slices): unable to induce
induction of histamine release (guinea-pig lung slices): unable to induce

CC(C)c1ccc(NC(=O)Cn2cnc3c2c(=O)n(C)c(=O)n3C)cc1 [HC030031]
IC50 (TRPA1): 6.2 to 7.5 µM
